Measured values published in ChEMBL document CHEMBL1138111, “Reduction of CYP450 inhibition in the 4-[(1H-imidazol-4-yl)methyl]piperidine series of histamine H3 receptor antagonists” (Bioorg Med Chem Lett, 2006).

Assays:
Cytochrome P450 2D6 [1] = target: T1, Cytochrome P450 2D6 (Homo sapiens, UniProt P10635); test: Inhibition of CYP2D6 by human liver microsome assay; type: ADME, microsomes
Cytochrome P450 3A4 = Cytochrome P450 3A4 (Homo sapiens, UniProt P08684); test: Inhibitory activity against CYP3A4; type: ADME
Sequence of Cytochrome P450 3A4 (P08684 whole entry): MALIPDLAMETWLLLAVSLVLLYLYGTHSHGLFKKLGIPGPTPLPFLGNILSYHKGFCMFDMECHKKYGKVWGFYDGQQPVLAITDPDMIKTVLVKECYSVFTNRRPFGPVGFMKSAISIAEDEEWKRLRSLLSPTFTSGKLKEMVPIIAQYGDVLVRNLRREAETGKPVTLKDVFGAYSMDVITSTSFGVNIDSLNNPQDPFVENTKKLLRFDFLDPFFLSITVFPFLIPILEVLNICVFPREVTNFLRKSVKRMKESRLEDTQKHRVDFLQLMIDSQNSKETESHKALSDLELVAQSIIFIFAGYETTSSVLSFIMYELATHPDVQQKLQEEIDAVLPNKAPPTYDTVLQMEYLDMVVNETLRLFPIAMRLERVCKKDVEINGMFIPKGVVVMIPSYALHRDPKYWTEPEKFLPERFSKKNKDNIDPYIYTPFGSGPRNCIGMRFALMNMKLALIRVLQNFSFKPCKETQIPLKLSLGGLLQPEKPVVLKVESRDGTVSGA

Histamine H3 receptor [2] = target: T2, Histamine H3 receptor (Cavia porcellus, UniProt Q9JI35); test: Displacement of [3H]N-alpha-methylhistamine from guinea pig histamine H3 receptor
T2 sequence (Q9JI35 whole entry): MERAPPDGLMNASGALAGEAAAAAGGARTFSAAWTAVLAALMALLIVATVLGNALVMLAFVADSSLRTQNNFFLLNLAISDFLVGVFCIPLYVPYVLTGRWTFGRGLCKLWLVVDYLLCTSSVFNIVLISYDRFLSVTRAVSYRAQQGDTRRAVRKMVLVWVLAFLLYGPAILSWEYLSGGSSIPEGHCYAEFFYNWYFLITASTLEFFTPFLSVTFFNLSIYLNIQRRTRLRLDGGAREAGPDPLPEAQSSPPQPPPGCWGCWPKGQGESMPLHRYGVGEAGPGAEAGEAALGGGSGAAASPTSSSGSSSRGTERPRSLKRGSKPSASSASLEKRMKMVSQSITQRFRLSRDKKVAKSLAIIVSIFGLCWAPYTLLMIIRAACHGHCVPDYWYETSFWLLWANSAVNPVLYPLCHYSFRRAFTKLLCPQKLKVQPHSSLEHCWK

Histamine H3 receptor [3] = target: T2, Histamine H3 receptor; test: Antagonistic activity against histamine H3 receptor in guinea pig ileum; type: functional, tissue-based; conditions: read-out: pA2 (converted)
Cytochrome P450 2D6 [4] = target: T1, Cytochrome P450 2D6; test: Inhibition of CYP2D6 by supersome assay; type: ADME
[5] = Plasma AUC (0-6 h) in rat at 10 mg/kg, po; type: ADME, organism-based; parameters: time < 6 hr, dose 10 mg/kg, route oral
[6] = Plasma AUC (0-24 h) in monkey at 3 mg/kg, po; type: ADME, organism-based, Macaca mulatta; parameters: time < 24 hr, dose 3 mg/kg, route oral; conditions: rhesus monkey

T1 sequence (P10635 whole entry): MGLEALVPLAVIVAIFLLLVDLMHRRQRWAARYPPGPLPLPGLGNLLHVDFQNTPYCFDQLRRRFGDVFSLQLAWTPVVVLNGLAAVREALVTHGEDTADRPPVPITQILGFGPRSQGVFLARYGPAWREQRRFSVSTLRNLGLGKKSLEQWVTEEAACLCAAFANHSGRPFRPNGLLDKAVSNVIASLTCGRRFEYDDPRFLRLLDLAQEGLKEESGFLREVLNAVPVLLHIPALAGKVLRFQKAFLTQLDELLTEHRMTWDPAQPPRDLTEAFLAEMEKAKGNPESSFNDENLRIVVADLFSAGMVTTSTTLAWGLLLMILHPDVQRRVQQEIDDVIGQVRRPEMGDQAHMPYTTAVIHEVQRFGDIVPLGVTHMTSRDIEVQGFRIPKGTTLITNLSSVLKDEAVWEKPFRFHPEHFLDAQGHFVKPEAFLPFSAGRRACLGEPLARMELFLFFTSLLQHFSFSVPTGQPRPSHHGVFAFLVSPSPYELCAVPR

IC50 (Cytochrome P450 2D6 [1]) [nM]	IC50 (Cytochrome P450 3A4) [nM]	Ki (Histamine H3 receptor [2]) [nM]	Kb (Histamine H3 receptor [3]) [nM]	IC50 (Cytochrome P450 2D6 [4]) [nM]	AUC(0-t) at 24 h [6] [µM·h]	SMILES	AUC(0-t) at 6 h [5] [µM·h]
30	> 20000	–	–	–	–	c1ccc(OCCCN2CCC(Cc3c[nH]cn3)CC2)cc1	–
–	–	16	25.1	> 30000	–	NC(=O)C1CCN(Cc2ccc(OCCCN3CCC(Cc4c[nH]cn4)CC3)cc2)CC1	–
6000	–	4	–	–	–	FC1(F)CCN(Cc2ccc(OCCCN3CCC(Cc4cnc[nH]4)CC3)cc2)CC1	–
–	–	26	20	2000	–	O=C(c1ccc(OCCCN2CCC(Cc3c[nH]cn3)CC2)cc1)N1CCCCC1	–
> 30000	–	17	79.4	–	–	CN(C)CCCOc1ccc(CN2CCC(Cc3cnc[nH]3)CC2)cc1	–
1000	–	315	–	–	–	O=C(CCOc1ccc(CN2CCCCC2)cc1)N1CCC(Cc2cnc[nH]2)CC1	1.83
12000	–	12	20	–	–	Nc1ncc(-c2ccc(OCCCN3CCC(Cc4c[nH]cn4)CC3)cc2)cn1	–
3000	–	5	–	–	–	c1ncc(CC2CCN(CCOc3ccc(CN4CCCCC4)cc3)CC2)[nH]1	–
3000	–	10	7.94	–	–	c1nc(CC2CCN(CCCOc3ccc(CN4CCCCC4)nc3)CC2)c[nH]1	–
> 20000	–	16	15.8	–	–	c1nc(CC2CCN(CCCCOc3ccc(CN4CCCCC4)cc3)CC2)c[nH]1	–
2000	–	52	–	–	–	c1cnc2ccc(OCCCN3CCC(Cc4cnc[nH]4)CC3)cc2c1	–
300	–	6	–	–	–	c1ncc(CC2CCN(CCCOc3ccc(OC4CCCCC4)cc3)CC2)[nH]1	–
4000	–	9	–	–	–	c1ncc(-c2ccc(OCCCN3CCC(Cc4cnc[nH]4)CC3)cc2)cn1	–
6000	–	45	–	–	–	c1cnc(-c2ccc(OCCCN3CCC(Cc4cnc[nH]4)CC3)cc2)nc1	–
–	–	34	–	5000	–	O=C1CCCCN1Cc1ccc(OCCCN2CCC(Cc3cnc[nH]3)CC2)cc1	–
2000	–	24	20	–	–	O=C(c1ccc(OCCCN2CCC(Cc3cnc[nH]3)CC2)nc1)N1CCCCC1	–

IC50 (Cytochrome P450 2D6 [1]) [nM]	IC50 (Cytochrome P450 3A4) [nM]	Ki (Histamine H3 receptor [2]) [nM]	Kb (Histamine H3 receptor [3]) [nM]	IC50 (Cytochrome P450 2D6 [4]) [nM]	AUC(0-t) at 24 h [6] [µM·h]	SMILES	AUC(0-t) at 6 h [5] [µM·h]
900	–	15	–	–	–	c1ncc(CC2CCN(CCCOc3ccc(NC4CCCCC4)cc3)CC2)[nH]1	–
–	–	3	3.16	1000	–	c1ncc(CC2CCN(CCCOc3ccc(CCN4CCCCC4)cc3)CC2)[nH]1	–
30000	–	–	–	–	–	O=C(CCOc1ccc(C(=O)N2CCNCC2)cc1)N1CCC(Cc2c[nH]cn2)CC1	–
6000	–	4	1.58	–	–	CCN(CC)Cc1ccc(OCCCN2CCC(Cc3c[nH]cn3)CC2)cc1	–
1000	–	15	–	–	–	c1nc(CC2CCN(CCCOc3ccc(N4CCCCC4)cc3)CC2)c[nH]1	–
2000	–	3	–	–	–	c1cc(OCCCN2CCC(Cc3cnc[nH]3)CC2)cc(OC2CCCCC2)c1	–
3000	–	1	3.98	–	–	c1cc(CN2CCCCC2)cc(OCCCN2CCC(Cc3cnc[nH]3)CC2)c1	–
3000	–	45	–	–	–	O=C(CCc1ccc(CN2CCCCC2)cc1)N1CCC(Cc2c[nH]cn2)CC1	–
> 30000	> 30000	33	31.6	–	–	CN(C)CCCOc1ccc(CN2CCCCC2)cc1	–
> 30000	–	3	–	–	–	c1ncc(CC2CCN(CCCOc3ccc(CN4CCC(N5CCCCC5)CC4)cc3)CC2)[nH]1	–
300	–	12	–	–	–	c1cncc(-c2ccc(OCCCN3CCC(Cc4cnc[nH]4)CC3)cc2)c1	–
14000	–	3	2.51	–	3.2	c1nc(CC2CCN(CCCOc3ccc(CN4CCCCC4)cc3)CC2)c[nH]1	–
> 20000	–	23	15.8	–	–	O=C(c1ccc(OCCCN2CCC(Cc3cnc[nH]3)CC2)cc1)N1CCNCC1	–
9000	–	40	–	–	–	O=C(CCN1CCC(Cc2c[nH]cn2)CC1)Nc1ccc(CN2CCCCC2)cc1	–
> 20000	–	12	–	–	–	c1ncc(CC2CCN(CCCOc3ccc(N4CCNCC4)cc3)CC2)[nH]1	–
> 30000	–	13	50.1	–	–	CN(C)CCCOc1ccc(CCCN2CCC(Cc3cnc[nH]3)CC2)cc1	–

SMILES	IC50 (Cytochrome P450 2D6 [1]) [nM]	IC50 (Cytochrome P450 3A4) [nM]	Ki (Histamine H3 receptor [2]) [nM]	Kb (Histamine H3 receptor [3]) [nM]	IC50 (Cytochrome P450 2D6 [4]) [nM]	AUC(0-t) at 24 h [6] [µM·h]	AUC(0-t) at 6 h [5] [µM·h]
O=C(Nc1nccs1)N1CCC(Cc2cnc[nH]2)CC1	2000	–	4	25.1	–	–	1.03
O=C(Nc1ncccn1)N1CCC(Cc2c[nH]cn2)CC1	6000	–	8	25.1	–	–	–
